Reference: US9566334B2, “Combinations of a PI3K/AKT inhibitor compound with an HER3/EGFR inhibitor compound and use thereof in the treatment of a hyperproliferative disorder” (THE GENERAL HOSPITAL CORPORATION, priority 2012, dated 2017)

Assays:
[1] = test system: EGFR, HER3 and downstream signaling pathways; test: Western blot of EGFR, HER3 and downstream signaling in cells; format: cell-based
Description: HCC70 and MDA-MB-468 TNBC cell lines, characterized by elevated levels of EGFR and loss of PTEN expression, were treated with GDC-0068, GDC-0941, MEHD7945A, and the combinations of these inhibitors.
Cells were washed with ice-cold phosphate buffered saline (PBS) and scraped into ice-cold RIPA lysis buffer (Cell Signaling) supplemented with phosphatase inhibitor cocktails (Complete Mini, and PhosphoStop (Roche)). Lysates were cleared by centrifugation at 13,000 rpm for 10 minutes at 4° C., supernatants removed and assayed for protein concentration using the Pierce BCA Protein Assay Kit (Thermo Scientific). Thirty-five micrograms of total lysate was resolved on NuPAGE 4-12% Bis-Tris gels (Life Technologies) and electrophoretically transferred to Immobilon transfer membranes (Millipore). Membranes were blocked for 1 hour in 5% nonfat dry milk in TBS-Tween and then hybridized using the following primary antibodies in 5% bovine serum albumin (BSA) TBS-Tween: phospho-Akt (Ser473), phospho-Akt (Thr308), Akt, phospho-S6 (Ser(240/4), phospho-S6 (Ser235/6), S6, phospho-PRAS40 (Thr246), PRAS40, phospho-Erk (Thr202/Tyr204), Erk, phospho-EGFR (Tyr1068), EGFR, phospho-HER3 (Tyr1289), HER3 (1:500-1:1000, Cell Signaling). Beta-actin was used as a loading control (1:5000, Sigma), also in 5% BSA TBS-Tween. Mouse and rabbit horseradish peroxidase (HRP)-conjugated secondary antibodies (1:50,000, Amersham Biosciences) were diluted in 2% nonfat dry milk in TBS-Tween. Protein—antibody complexes were detected by chemiluminescence with SuperSignal West FemtoChemiluminescent Substrate (Thermo Scientific) and images were captured with a G-BOX camera system.

[2] = test system: HCC70 and MDA-MB-468 cells; test: Five days proliferation analysis (Crystal Violet / CellTiter-Glo); format: cell-based; details: 5 days; MEHD7945A 10 nM, GDC-0068 and GDC-0941 1 uM
Description: Whether the combination of MEHD7945A with GDC-0068 or GDC-0941 would result in enhanced antiproliferative activity was tested in both HCC70 and MDA-MB-468 cells.
(§1) For proliferation, 5×10^5 cells were seeded in 96-well plates and treated with the indicated concentrations of GDC-0068, GDC-0941, and/or MEHD7945A. After 5 days, cells were fixed and stained with Crystal Violet. Cell proliferation was also analyzed with CellTiter-Glo Luminescent Cell Viability Assay (Promega) as described by the manufacturer. For heregulin (HRG, Peprotech) and epidermal growth factor (EGF, Peprotech)-induced proliferation, 5×10^5 cells were treated with GDC-0068, GDC-0941, and/or MEHD7945A in the presence of 4 ng/ml of ligands for 5 days and then stained with Crystal Violet.

[3] = test system: MDA-MB-468, HCC70 and patient-derived xenograft; test: In vivo activity in three different models of TNBC; parameters: species or system mice
Description: Several TNBC cell lines were treated with MEHD7945A, a dual-action antibody that targets both EGFR and HER3, AKT inhibitor GDC-0068, and pan-PI3K inhibitor GDC -0941. Cell viability was measured by CellTiter-Glo and Crystal Violet. Both cell line- and patient -derived xenograft models of TNBC were treated with MEHD7945A, GDC-0068, GDC-0941, or the combination of MEHD7945A with either GDC-0068 or GDC-0941. Tumor size and histology were examined. Protein expression was measured by Western blot, Mass Spectometry, CEER and immunohistochemistry.
To test the activity of these compounds in vivo, three different models of TNBC were used: two cell line (MDA-MB-468 and HCC70)-based and a patient-derived xenograft.
All mouse studies were conducted through institutional Animal Care and Use Committee (IACUC) approved animal protocols in accordance with institutional guidelines. Six-week-old female athymic nude mice were purchased from Charles River Laboratories and housed in air-filtered laminar flow cabinets with a 12-hour light cycle and food and water ad libitum.
(§2) For cell line-derived xenograft studies, mice were injected subcutaneously with 1×10^7 HCC70 or MDA-MB-468 suspended in 150 μL culture media/Matrigel (BD Biosciences) in a 4:1 ratio. One μmol/L of 17β-estradiol was supplemented in the mouse drinking water as described (Garcia-Garcia et al., Clinical cancer research: an official journal of the American Association for Cancer Research 18, 2603 (2012)).
(§3) For patient-derived xenograft (PDX) studies, tumors were subcutaneously implanted in 6-week old female athymic nude mice. Upon xenograft growth, tumor tissue was reimplanted into recipient mice, which were randomized upon implant growth. For the collection of circulating tumor cells (CTCs), tumors were implanted into the mammary pad of athymic nude mice.
(§4) Once tumors reached an average volume of about 150-250 mm^3, mice were randomized into treatment arms, with n=7-11 tumors/group. GDC-0068 [40 mg/kg] or GDC-0941 [75 mg/kg] were dissolved in 0.5% methylcellulose and 0.2% Tween-80 (MCT) solution and administered once daily via oral gavage. […] Tumors were measured by digital caliper over the entire treatment period. Tumor volume was determined using the formula: (length×width^2)×(π/6). Tumor volumes are plotted as means±SEM.

[4] = test system: patient-derived xenografts (PDX) of TNBC; test: Patient-derived xenograft tumor growth; format: in vivo, mice; details: MEHD7945A 10 mg/Kg twice weekly, GDC-0941 75 mg/Kg daily, GDC-0068 40 mg/kg daily
Description: The activity of the same treatments in patient-derived xenografts (PDX) of TNBC was then tested.
as §3, §4

[5] = test system: MDA-MB-468- and HCC70-derived xenografts; test: Cell line-derived xenograft tumor growth; format: in vivo, mice; details: MDA-MB-468 and HCC70 xenografts; p less than 0.01 combination vs monotherapy
Description: To expand these findings in vivo, the efficacy of MEHD7945A was tested in combination with either the Akt or PI3K inhibitor in both MDA-MB-468- and HCC70-derived xenografts.
as §2, §4

[6] = test system: EGFR and HER3; test: CEER analysis of active and total EGFR and HER3 in xenograft tumors; format: in vivo, mice
Description: The levels of EGFR and HER3 expression/activation in HCC70 tumors collected at the end of the experiments (day 39) was investigated. […] Frozen tissue was analyzed by Cooperative, Enhanced, Enzyme Immunoreactive (CEER), a platform that utilizes reverse-phase detection of nanogram quantities of protein.
The levels of pathway protein expression and their activation in xenografts were determined by CEER. (Kim et al., ASCO Annual Meeting abstract P2-06-13, (2010)) CEER utilizes the formation of unique immuno-complexes between capture antibodies printed on a nitrocellulose microarray surface, the target molecule in cell lysate reacted with the slide, and two independent detector-antibodies. One of the detector-antibody is conjugated to glucose oxidase, and the other is conjugated to horseradish peroxidase. Target detection (expressed as computational unit, CU) requires the presence of both detector-antibodies and the enzyme channeling event between glucose oxidase and horseradish peroxidase will not occur unless both antibodies are in close proximity.

[7] = test system: HCC70 cells; test: Heregulin- and EGF-induced proliferation; format: cell-based
Description: as §1, with “MEH[…].” for “MEHD7945A.”, “MEH[…]” for “MEHD7945A”

[8] = test system: TNBC patients; test: Neoadjuvant trial of panitumumab with standard chemotherapy (pCR, EGFR and HER3 IHC); format: in vivo, human
Description: Patient samples: Tumor tissue was fixed in 10%-buffered formalin for 48 h and further embedded in paraffin. Four-micron sections were deparaffinized in xylene and hydrated in graded alcohols. For EGFR detection, the antigen was retrieved by protease treatment (8 min at 37° C.) and the sections further incubated at 37° C. for 1 h with pre-diluted, ready-to-use mouse monoclonal anti-EGFR (clone 3C6, Ventana, Tucson, Ariz.). The antigen-antibody reaction was visualized by UltraView DAB reveal system in a Benchmark XT automated IHC stainer (all from Ventana). For HER3, the antigen retrieval was performed by heating the sections at 97° C. for 20 min in EnVision® Target Retrieval Solution High pH (Dako) in PT-Link apparatus (Dako). The tissues were then incubated at 37° C. for 2 h with mouse monoclonal anti-HER3 (clone DAK-H3-IC, Dako, Glostrup, Denmak) diluted at 1:50. […] For each patient the pre-treatment and the post-treatment tumor sample were run together. IHC staining was interpreted by an expert pathologist who was blind to patient information. Both EGFR and HER3 expressions were quantified using an arbitrary scale having 0, 0.5, 1, 1.5, 2, 2.5 and 3 as measures of increasing staining intensity. EGFR and HER3 histoscores were defined as a sum of products obtained by multiplying the staining intensity with the percentage of stained cells.
FFPE specimens for IHC analyses of EGFR and HER3 expression were obtained from the institutions participating in two French multicenter pilot phase II neoadjuvant trials which tested the efficacy of an anti-EGFR antibody combined to chemotherapy in TNBC stage II-IIIA pts. One trial regimen consisted of 8 cycles, administered each 3 weeks. First 4 cycles contained 9 mg/kg of panitumumab combined with 500 mg/m2 of each 5-fluorouracil and cyclophosphamide plus 100 mg/m2 of epirubicin. Last 4 cycles had panitumumab with 100 mg/m2 docetaxel instead of 3 cytotoxics previously mentioned. […] All patients underwent surgery at completion of treatment. Pathologic complete response (pCR) was the primary endpoint with clinical response and toxicity as secondary endpoints. […] Tumor tissue samples were systematically collected before and at the end of the neoadjuvant treatment and collection was centralized at the Jean Perrin Comprehensive Cancer Center where molecular and pathological analyses were performed. pCR was evaluated using Chevallier's (Chevallier et al., American Journal of Clinical Oncology 16, 223 (1993)) and Sataloff's (Sataloff et al., Journal of the American College of Surgeons 180, 297 (1995)) classifications.

[9] = cells stimulated with either EGF or Heregulin
[10] = pre-treatment EGFR histoscore more than 70
[11] = pre-treatment EGFR histoscore ≦70

## MEHD7945A: dual-action antibody with two identical antigen binding domains, each of which specifically binds to both HER3 and EGFR
[1]; addition of MEHD7945A 10 nM to GDC-0068 or GDC-0941, both cell lines
  inhibition of the PI3K and ERK downstream pathways: enhanced the inhibition of the PI3K and ERK downstream pathways
[1]; addition of MEHD7945A 10 nM, both cell lines, 24 hours
  induction of EGFR and HER3 phosphorylation by GDC-0068 or GDC-0941: prevented the induction of EGFR and HER3 phosphorylation
[1]; [9]
  HER3/EGFR receptor phosphorylation: prevented HER3/EGFR receptor phosphorylation
[2]
  inhibition of cell proliferation/viability: varying sensitivity
[3]; analysis of treated tumors
  EGFR and HER3 phosphorylation consequent to PI3K inhibition in treated tumors: effectively prevented EGFR and HER3 phosphorylation
[3]; three TNBC models, MEHD7945A 10 mg/kg i.p. twice weekly, GDC-0068 40 mg/kg, GDC-0941 75 mg/kg oral once daily
  tumor growth: variable delay in tumor growth
[4]
  tumor growth: delayed tumor growth
[5]
  tumor growth inhibition: responded only modestly
[6]; HCC70 xenografts
  EGFR phosphorylation (CEER): blocked EGFR phosphorylation
  HER3 activation (CEER): decreased HER3 activation
[6]; TNBC PDX, tumors harvested 2 h after the last drug administration
  active and total levels of HER3 and EGFR (CEER): prevented receptor phosphorylation
[7]; HCC70 cells stimulated with EGF, antibodies 10 nM, GDC-0068 and GDC-0941 1 uM, 5 days
  effect on antiproliferative activity mediated by PI3K/Akt inhibition: enhanced the antiproliferative activity mediated by PI3K/Akt inhibition
[7]; HCC70 cells stimulated with heregulin (HRG), antibodies 10 nM, 5 days
  cooperation with the antiproliferative activity of GDC-0068 and GDC-0941: superior to cetuximab
[7]; [9]
  effect on antiproliferative activity of the PI3K inhibitors: improved the antiproliferative activity of the PI3K inhibitors

## panitumumab: anti-EGFR antibody, epidermal growth factor receptor antagonist
[8]; 40 patients
  residual disease at the time of surgery, rate: 52.5%
[8]; 40 patients, panitumumab with 4 standard cytotoxic agents, 24 weeks
  pathological complete response (pCR) rate: 47.5%
[8]; comparison with Liedtke et al. 2008
  increase in pCR compared to TNBC patients treated only with cytotoxics-based neoadjuvant chemotherapy: two-fold increase
[8]; of 40 patients
  patients with residual disease at the time of surgery: 21
[8]; of 40 patients, panitumumab with 4 standard cytotoxic agents, 24 weeks
  patients achieving pathological complete response (pCR): 19
[8]; p equals 0.010
  non-pCR patients with higher HER3 expression in residual lesions versus pre-treatment (IHC): 7 out of 13
[8]; p equals 0.07
  non-pCR patients with decreased EGFR levels in residual tumors versus baseline (IHC): nine out of 21
[8]; [10]
  pCR rate: 58%
  patients with pCR: 15 out of 26
[8]; [11]
  complete tumor regression rate: 28%
  patients with complete tumor regression: 4 out of 14
